For one compound, IC50 results are on record in paper PMC9256669, “Monomethyl auristatin antibody and peptide drug conjugates for trimodal cancer chemo-radio-immunotherapy” (Nature Communications, 2022).

One test has as its system A549. Nature of the test: Cytotoxicity, Alamar Blue assay. Format: cell-based, human. The note with it: 72 h drug exposure, one value per biological replicate. The procedure: (§1) Cells were plated in 96-well plates and exposed to a drug concentration range for 72 h. Alamar Blue was added to the cells and allowed to incubate for 2–4 h at 37 °C. Plates were analyzed using a plate reader with fluorescence measured at 560 nm. Fractional survival was normalized to untreated control cell fluorescent values. Drug IC50 was calculated using Prism software (GraphPad, La Jolla, CA). Cell viability, cytotoxicity and apoptosis were also measured by ApoTox-Glo Triplex Assay (Promega).
(The colour change of resazurin is a common sign of viable cells or microbes.)

The test system of a further test is HCT116. Nature of the test: Cytotoxicity, Alamar Blue assay. It is filed as cell-based, human. Particulars: 72 h drug exposure, one value per biological replicate. As to the method:
as §1

Molecules are shown by their SMILES. “And” between values parts separate entries of the source, which are not always exact repeats. Equal entries are not always repeated. Non-standard residues stand in square brackets, D forms with d. Residues, ends and D or L forms follow the SMILES beside them. *: point of attachment. Dolaproine = CO[C@@H]([C@@H]1CCCN1)[C@@H](C)C(=O)O; Dil = CC[C@H](C)[C@H](NC)[C@@H](CC(=O)O)OC; X1 = C[C@@H](N*)[C@@H](O)c1ccccc1; NMeV = CN[C@H](C(=O)O)C(C)C

With `CC[C@H](C)[C@@H]([C@@H](CC(=O)N1CCC[C@H]1[C@H](OC)[C@@H](C)C(=O)N[C@H](C)[C@@H](O)c1ccccc1)OC)N(C)C(=O)[C@@H](NC(=O)[C@@H](NC)C(C)C)C(C)C` [MMAE, monomethyl auristatin E] (H-[NMeV]V[Dil][Dolaproine]-X1), the IC50 is 0.559 nM and 0.513 nM in the test with A549; 0.343 nM and 0.431 nM and 0.548 nM and 1.43 nM and 1.52 nM and 1.35 nM in the test on HCT116.

As a reminder, the IC50 is the concentration needed to halve the response being measured.
